The values that follow come from US11141450B2, “Compositions for reducing appetite and craving, increasing satiety, enhancing mood, and reducing stress” (NEKTIUM PHARMA, S.L., priority 2017, dated 2021).

SMILES strings stand for the structures.

Assay [1] relates to Fisher 344 rats. As to the kind of experiment: EEG signals by telemetry from implanted electrodes in freely moving rats, Example 1. The format is in vivo. The following applies: first hour; all brain areas; p<0.01 relative to pre-drug baseline for the reference drugs; Rimonabant 5 mg/kg, Methylphenidate 1.0 mg/kg, Selegiline 1.5 mg/kg; FIG. 1. From the text:
Fisher 344 rats (11 months of age and day-night converted, weight about 350-400 g, provided by Charles River Laboratories, D-97633, Sulzfeld) were used in a series of experiments on the effects of various herbal and pharmaceutical products on central nervous system activity. Products were provided to the test subjects orally (gavage).
The substances tested in this study included: • A control vehicle (0.9% NaCl); • Cyperus esculentus tuberous rhizome, ethanol extract, administered in an amount of 200 mg/kg to 7 rats; • Mango leaf, ethanol extract, administered in an amount of 50 mg/kg to 7 rats; • Cyperus Esculentus tuberous rhizome peel, ethanol extract, 150 mg/kg, plus Mango leaf extract, containing 60% of Mangiferin, 50 mg/kg, administered to 5 rats • Selegiline, administered in amount of 1.5 mg/kg to 8 rats • Methylphenidate administered in an amount of 1.0 mg/kg to 8 rats • Rimonabant administered in amount of 5 mg/kg to 6 rats
EEG signals were recorded by telemetry from 4 implanted electrodes in the frontal cortex, hippocampus and striatum of freely moving rats from inside a totally copper shielded room. Signals were collected in sweeps of 4-second duration and Fast Fourier transformed using a Hanning window. EEG signals were recorded over a period starting 5 minutes after administration of the test substances, and ending 65 minutes after administration of the test substances. Sampling frequency was 512 Hz. […] In an off-line procedure, the spectra were averaged to give longer periods for further analysis and data presentation. Spectral activity within the frontal cortex, hippocampus, striatum and reticular formation was recorded.

For assay [2], the system named is Fisher 344 rats. As to the kind of experiment: EEG signals by telemetry from implanted electrodes in freely moving rats, first hour and fifth hour, Example 2. The format is in vivo. The following applies: first hour after administration and 5 hours after administration. How it is done: Products were provided to the test subjects orally (gavage).
EEG signals were recorded by telemetry from 4 implanted electrodes in the frontal cortex, hippocampus and striatum of freely moving rats from inside a totally copper shielded room.

Take `C#CCN(C)[C@H](C)Cc1ccccc1` [Selegiline]: in the assay on Fisher 344 rats [1], the “effect on alpha-2 waves” value is given as “main significant effect”.
For the compound `O=c1c2cc(O)c(O)cc2oc2cc(O)c([C@@H]3O[C@H](CO)[C@@H](O)[C@H](O)[C@H]3O)c(O)c12` [pure Mangiferin, Mangiferin], the “impact on alpha-1 brain wave activity in the hippocampus” value in the assay with Fisher 344 rats [2] is “Neither Tigernut extract nor Mango leaf extract (60% Mangiferin) or pure Mangiferin administered alone showed a significant decrease of alpha-1 brain wave activity”.
Take `COC(=O)C(c1ccccc1)C1CCCCN1` (stereo not shown) [Methylphenidate]: the “effect on alpha-2 waves” value with Fisher 344 rats [1] is “main significant effect”.
With `Cc1c(C(=O)NN2CCCCC2)nn(-c2ccc(Cl)cc2Cl)c1-c1ccc(Cl)cc1` [Rimonabant], the “effect on alpha-2 waves” value in the assay on Fisher 344 rats [1] was “main significant effect”.
